Data as given in EP0094564A2, “Azolyl-methyl oxiranes, their preparation and use as medicaments and plant protecting agents” (BASF Aktiengesellschaft, priority 1982, dated 1983).
In brackets after ≈: the same amount, converted by molar mass.

Tests used:
[1] = system: Gurkenmehltau (Erysiphe cichoracearum); assay: Versuch 3: activity against cucumber powdery mildew on cucumber seedlings; format: in vivo; conditions: 0,025 %ige Spritzbrühe; sprayed about 20 h after inoculation; assessed after 21 days; value given as 'beispielsweise'
From the text: Blätter von in Töpfen gewachsenen Gurkenkeimlingen der Sorte "Chinesische Schlange" wurden im Zweiblattstadium mit einer Sporensuspension des Gurkenmehltaus (Erysiphe cichoracearum) besprüht. Nach etwa 20 Stunden wurden die Versuchspflanzen mit wäßriger Spritzbrühe, die 80 % Wirkstoff und 20 % Emulgiermittel in der Trockensubstanz enthielt, bis zur Tropfnässe besprüht. Nach dem Antrocknen des J Spritzbelages wurden sie anschließend im Gewächshaus bei Temperaturen zwischen 20 und 22^00 und 70 bis 80 % relativer Luftfeuchtigkeit aufgestellt. Zur Beurteilung der Wirksamkeit der neuen Stoffe wurde das Ausmaß der Pilzentwicklung nach 21 Tagen beurteilt.

Cand.alb. H = assay: Candida albicans pseudomycelium/mycelium phase test, MIC; format: cell-based; conditions: in vitro, column H, read-out: Minimale Hemmkonzentration (MHK) Cand.alb. H
From the text: (§1) Die Wirkung gegen Dermatophyten, Bakterien und Protozonen kann nach Methoden, wie sie beispielsweise in P. Klein, Bakteriologische Grundlagen der chemotherapeutischen Laboratoriumspraxis, Springer-Verlag Berlin, 1957, beschrieben wird, aufgezeigt werden. Die überraschende Wirkung gegenüber Hefen wurde im Pseudomyzel- und Myzelphasentest mit Candida albicans nachgewiesen (vgl. DE-OS 30 10 093). Es wurde geprüft, welche minimalen Hemmkonzentrationen (MHK-Werte) im Agardilutionstest erreicht werden. In der Tabelle 1 sind die Ergebnisse zusammengefaßt.

Mucor pus. 6 = assay: Agar dilution test, minimal inhibitory concentration in vitro; format: cell-based; conditions: read-out: Minimale Hemmkonzentration (MHK) Mucor pus. 6
From the text: as §1

Microsp. ferrug. 5 = assay: as above; format: cell-based; conditions: read-out: Minimale Hemmkonzentration (MHK) Microsp. ferrug. 5
From the text: as §1

Aps.fum. 2 = assay: as above; format: cell-based; conditions: read-out: Minimale Hemmkonzentration (MHK) Aps.fum. 2
From the text: as §1

Staph. aur. SG 511 = assay: as above; format: cell-based; conditions: read-out: Minimale Hemmkonzentration (MHK) Staph. aur. SG 511
From the text: as §1

E.coli muta-flor = assay: as above; format: cell-based; conditions: Escherichia coli, read-out: Minimale Hemmkonzentration (MHK) E.coli muta-flor
From the text: as §1

Strept. faec. 8043 = assay: as above; format: cell-based; conditions: read-out: Minimale Hemmkonzentration (MHK) Strept. faec. 8043
From the text: as §1

Abs. corym. 1 = assay: as above; format: cell-based; conditions: read-out: Minimale Hemmkonzentration (MHK) Abs. corym. 1
From the text: as §1

Botrytis cinerea = assay: Versuch 4: activity against Botrytis cinerea on paprika seedlings; format: in vivo; conditions: 0,05 %ige Spritzbrühe; sprayed before inoculation; assessed after 5 days; value given as 'beispielsweise'
From the text: Paprikasämlinge der Sorte "Neusiedler Ideal Elite" wurden, nachdem sich 4 bis 5 Blätter gut entwickelt hatten, mit wäßrigen Suspensionen, die 80 % Wirkstoff und 20 % Emulgiermittel in der Trockensubstanz enthielten, tropfnaß gespritzt. Nach dem Antrocknen des Spritzbelages wurden die Pflanzen mit einer Konidienaufschwemmung des Pilzes Botrytis cenerea besprüht und bei 22 bis 24 C in eine Kammer mit hoher Luftfeuchtigkeit gestellt. Nach 5 Tagen hatte sich die Krankheit auf den unbehandelten Kontrollpflanzen so stark entwickelt, daß die entstandenen Blattnekrosen den überwiegenden Teil der Blätter bedeckten.

Trichom. vag. = assay: Minimal inhibitory concentration in vitro (protozoa); format: cell-based; conditions: read-out: Minimale Hemmkonzentration (MHK) Trichom. vag.
From the text: as §1

Cand.alb. M = assay: Candida albicans pseudomycelium/mycelium phase test, MIC (column M); format: cell-based; conditions: in vitro, read-out: Minimale Hemmkonzentration (MHK) Cand.alb. M
From the text: as §1

[2] = system: Weizenbraunrost (Puccinia recondita); assay: Versuch 2: activity against wheat brown rust on wheat seedlings; format: in vivo; conditions: 0,025; 0,006; 0,0015 %ige Spritzbrühen; sprayed 24 h after inoculation; assessed after 8 days; value given as 'beispielsweise'
Procedure: Blätter von in Töpfen gewachsenen Weizensämlingen der Sorte "Jubilar" wurden mit Sporen des Braunrostes (Puccinia recondita) bestäubt. Danach wurden die Töpfe für 24 Stunden bei 20 bis 22°C in eine Kammer mit hoher Luftfeuchtigkeit (90 bis 95 %) gestellt. Während dieser Zeit keimten die Sporen aus und die Keimschläuche drangen in das Blattgewebe ein. Die infizierten Pflanzen wurden anschließend mit wäßrigen Spritzbrühen, die 80 % Wirkstoff und 20 % Emulgiermittel in der Trockensubstanz enthielten, tropfnaß gespritzt. Nach dem Antrocknen des Spritzbelages wurden die Versuchspflanzen im Gewächshaus bei Temperaturen zwischen 20 und 22°C und 65 bis 70 % relativer Luftfeuchte aufgestellt. Nach 8 Tagen wurde das Ausmaß der Rostpilzentwicklung auf den Blättern ermittelt.

Coniophora puteana = assay: Versuch 6: fungal growth on malt extract agar containing active ingredient; format: cell-based; set-up: key: 0 = kein Pilzwachstum (Pilzmyzel abgetötet); 1 = geringes Pilzwachstum (bis 1/3 der Agaroberfläche bewachsen); 3 = mittleres Pilzwachstum (bis 2/3 der Agaroberfläche bewachsen); 5 = ungehemmtes Pilzwachstum (gesamte Agaroberfläche bewachsen); conditions: 40 ppm in 5 % malt extract agar; 5 days at 25 °C; growth score
From the text: (§2) Die Wirkstoffe werden in Aceton gelöst, in Mengen von 40 ppm einem verflüssigten 5 %igen Malzextraktagar zugesetzt. Der Agar wird in Petrischalen ausgegossen und nach dem Erstarren werden die fungizidhaltigen Nähragarplatten zentral mit Myzel der holzzerstörenden Pilze Coniophora puteana und Trametes versicolor, des Moderfäule und Stockflecken verursachenden Pilzes Chaetomium globosum sowie mit Sporen des grünen Holzschimmels Trichoderma viride beimpft.
(§3) Nach fünftägiger Bebrütung der Schalen bei 25 °C wird die Entwicklung der Pilzkolonien auf dem Nährboden im Vergleich mit der Kontrolle (ohne Wirkstoff-Zusatz) beurteilt: • 0 = kein Pilzwachstum (Pilzmyzel abgetötet) • 1 = geringes Pilzwachstum (bis 1/3 der Agaroberfläche bewachsen) • 3 = mittleres Pilzwachstum (bis 2/3 der Agaroberfläche bewachsen) • 5 = ungehemmtes Pilzwachstum (gesamte Agaroberfläche bewachsen)

Trametes versicolor = assay: as above; format: cell-based; set-up: key: 0 = kein Pilzwachstum (Pilzmyzel abgetötet); 1 = geringes Pilzwachstum (bis 1/3 der Agaroberfläche bewachsen); 3 = mittleres Pilzwachstum (bis 2/3 der Agaroberfläche bewachsen); 5 = ungehemmtes Pilzwachstum (gesamte Agaroberfläche bewachsen); conditions: 40 ppm in 5 % malt extract agar; 5 days at 25 °C; growth score
From the text: as §2, §3

Trichoderma viride = assay: as above; format: cell-based; set-up: key: 0 = kein Pilzwachstum (Pilzmyzel abgetötet); 1 = geringes Pilzwachstum (bis 1/3 der Agaroberfläche bewachsen); 3 = mittleres Pilzwachstum (bis 2/3 der Agaroberfläche bewachsen); 5 = ungehemmtes Pilzwachstum (gesamte Agaroberfläche bewachsen); conditions: 40 ppm in 5 % malt extract agar; 5 days at 25 °C; growth score
From the text: as §2, §3

Chaetomium globosum = assay: as above; format: cell-based; set-up: key: 0 = kein Pilzwachstum (Pilzmyzel abgetötet); 1 = geringes Pilzwachstum (bis 1/3 der Agaroberfläche bewachsen); 3 = mittleres Pilzwachstum (bis 2/3 der Agaroberfläche bewachsen); 5 = ungehemmtes Pilzwachstum (gesamte Agaroberfläche bewachsen); conditions: 40 ppm in 5 % malt extract agar; 5 days at 25 °C; growth score
From the text: as §2, §3

[3] = system: Weizenmehltau (Erysiphe graminis var. tritici); assay: Versuch 1: activity against wheat powdery mildew on wheat seedlings; format: in vivo; conditions: 0,025; 0,006; 0,0015 %ige Spritzbrühen; sprayed 24 h before inoculation; assessed after 7 days; value given as 'beispielsweise'
Procedure: Blätter von in Töpfen gewachsenen Weizenkeimlingen der Sorte "Jubilar" wurden mit wäßriger Spritzbrühe, die 80 % (Gew.%) Wirkstoff und 20 % Emulgiermittel in der Trockensubstanz enthielt, besprüht und 24 Stunden nach dem Antrocknen des Spritzbelages mit Oidien (Sporen) des Weizenmehltaus (Erysiphe graminis var. tritici) bestäubt. Die Versuchspflanzen wurden anschließend im Gewächshaus bei Temperaturen zwischen 20 und 22 °C und 75 bis 80 % relativer Luftfeuchtigkeit aufgestellt. Nach 7 Tagen wurde das Ausmaß der Mehltauentwicklung ermittelt.

Epid. flocc. 157 = assay: Agar dilution test, minimal inhibitory concentration in vitro; format: cell-based; conditions: read-out: Minimale Hemmkonzentration (MHK) Epid. flocc. 157
From the text: as §1

Trichoph. ment. 21 = assay: as above; format: cell-based; conditions: read-out: Minimale Hemmkonzentration (MHK) Trichoph. ment. 21
From the text: as §1

Structure (SMILES)	fungizide Wirkung gegen Gurkenmehltau [1]	fungizide Wirkung gegen Botrytis cinerea an Paprika (Botrytis cinerea)	fungizide Wirkung gegen Weizenbraunrost [2]	Wirksamkeit gegen Coniophora puteana (Coniophora puteana)	Wirksamkeit gegen Trametes versicolor (Trametes versicolor)	Wirksamkeit gegen Trichoderma viride (Trichoderma viride)	Wirksamkeit gegen Chaetomium globosum (Chaetomium globosum)	also measured
Clc1ccc(C2OC2(Cn2ccnc2)c2ccccc2)c(Cl)c1 (single isomer, unassigned) [Beispiel 6]	100%	97%	100%					MIC (Cand.alb. H): 32 µg/mL (≈ 92.7 µM); MIC (Mucor pus. 6): 4 µg/mL (≈ 11.6 µM); MIC (Microsp. ferrug. 5): 0.0625 µg/mL (≈ 0.181 µM); MIC (Aps.fum. 2): 0.0625 µg/mL (≈ 0.181 µM); MIC (Staph. aur. SG 511): 16 µg/mL (≈ 46.3 µM); MIC (E.coli muta-flor): > 128 µg/mL; MIC (Strept. faec. 8043): 16 µg/mL (≈ 46.3 µM); MIC (Abs. corym. 1): 8 µg/mL (≈ 23.2 µM); MIC (Trichom. vag.): > 16 µg/mL; MIC (Cand.alb. M): < 0.0039 µg/mL
Clc1ccc(C2(Cn3ccnc3)OC2c2ccc(Br)cc2)c(Cl)c1 (single isomer, unassigned) [Beispiel 49]				0	0	0	1	
O=C(Cn1cncn1)c1ccc(Cl)cc1Cl [Wirkstoff B, (2,4-Dichlorphenyl)-1,2,4-triazol-1-yl-methylketon, reference compound]		70%	50%					fungizide Wirkung gegen Weizenmehltau [3]: 90%
OC(Cn1ccnc1)c1ccc(Cl)cc1Cl (stereo not shown) [Wirkstoff A, 1-(2,4-Dichlorphenyl)-2-(imidazol-1-yl)-ethan-1-ol, reference compound]		70%	50%					fungizide Wirkung gegen Weizenmehltau [3]: 90%
Clc1ccc(C2OC2(Cn2cncn2)c2ccc(Br)cc2)c(Cl)c1 (single isomer, unassigned) [Beispiel 10]	100%	97%	100%	0	0	0	0	
Clc1ccc(C2(Cn3ccnc3)OC2c2ccc(Br)cc2)cc1 (single isomer, unassigned) [Beispiel 48]				0	0	0	0	
CC(C)(C)C1(Cn2ccnc2)OC1c1ccc(Cl)cc1 (single isomer, unassigned) [Beispiel 14]	100%			0	0	0	0	
Fc1ccc(C2OC2(Cn2cncn2)c2ccc(Cl)cc2)cc1 (single isomer, unassigned) [Beispiel 45]	100%			0	0	0	1	
CC(C)(C)C1(Cn2cncn2)OC1c1ccccc1 (single isomer, unassigned) [Beispiel 15]	100%			0	0	1	3	
CC1(Cn2cncn2)OC1c1ccc(Cl)cc1Cl (single isomer, unassigned) [Beispiel 23]				0	0	0	0	
Clc1ccc(C2(Cn3ccnc3)OC2c2ccccc2)cc1 (single isomer, unassigned) [Beispiel 9]								MIC (Cand.alb. H): > 1 µg/mL; MIC (Mucor pus. 6): 2 µg/mL (≈ 6.44 µM); MIC (Microsp. ferrug. 5): 0.25 µg/mL (≈ 0.804 µM); MIC (Epid. flocc. 157): 1 µg/mL (≈ 3.22 µM); MIC (Aps.fum. 2): 16 µg/mL (≈ 51.5 µM); MIC (Staph. aur. SG 511): 128 µg/mL (≈ 412 µM); MIC (E.coli muta-flor): > 128 µg/mL; MIC (Strept. faec. 8043): 128 µg/mL (≈ 412 µM); MIC (Trichoph. ment. 21): 1 µg/mL (≈ 3.22 µM); MIC (Abs. corym. 1): 4 µg/mL (≈ 12.9 µM); MIC (Trichom. vag.): > 16 µg/mL
Clc1ccc(C2OC2(Cn2ccnc2)c2ccc(Br)cc2)c(Cl)c1 (single isomer, unassigned) [Beispiel 7]								MIC (Cand.alb. H): 16 µg/mL (≈ 37.7 µM); MIC (Mucor pus. 6): 2 µg/mL (≈ 4.72 µM); MIC (Microsp. ferrug. 5): 0.25 µg/mL (≈ 0.589 µM); MIC (Epid. flocc. 157): 1 µg/mL (≈ 2.36 µM); MIC (Aps.fum. 2): 4 µg/mL (≈ 9.43 µM); MIC (Staph. aur. SG 511): 16 µg/mL (≈ 37.7 µM); MIC (E.coli muta-flor): > 128 µg/mL; MIC (Strept. faec. 8043): 16 µg/mL (≈ 37.7 µM); MIC (Trichoph. ment. 21): 1 µg/mL (≈ 2.36 µM); MIC (Abs. corym. 1): 1 µg/mL (≈ 2.36 µM); MIC (Trichom. vag.): > 16 µg/mL; MIC (Cand.alb. M): 0.0156 µg/mL (≈ 0.0368 µM)
